Legend:
Molm-13 cells = test: Antiproliferative activity, CellTiter-Glo, 7 days (Test Example 2), Molm-13; format: cell-based; details: Homo sapiens, 168 h, 7 days incubation, read-out: MOLM13 IC50
Source text: [0134] 1. Experimental Principle: MV-4-11, Molm-13, and OCI-AML-3 cells are human hematologic tumor cell lines harboring the Menin-MLL fusion. HL-60 is a wild-type human hematologic tumor cell line without Menin-MLL fusion. […] 2. Experimental Materials: MV-4-11, Molm-13, OCI-AML-3, and HL-60 cells were all purchased from Cobioer; CellTiter-Glo® was purchased from Promega (Cat. #G7571); RPMI-1640 was purchased from Viva Cell (Cat. #C3010-0500); IMDM was purchased from Viva Cell (Cat. #C3040-0500); fetal bovine serum (FBS) was purchased from Biosera (Cat. #FB-1058/500); penicillin-streptomycin was purchased from BasalMedia (Cat. #S110JV); 0.25% Trypsin-EDTA was purchased from BasalMedia (Cat. #S310KJ); dimethyl sulfoxide (DMSO) was purchased from Sinopharm (Cat. #30072418); 96-well plates were purchased from Corning (Cat. #3610); incubator was obtained from PHCbi (Model: MCO-18AC); inverted microscope was obtained from Mingmei (Cat. #MI52-0); automated cell counter was obtained from BodBoge (Model: JSY-SC-031N); microplate reader was obtained from PerkinElmer (Model: Envision); data processing software: GraphPad Prism 8.0. 3. […] After incubation at room temperature for 10 minutes, luminescence values were read using the EnVision microplate reader, and IC50 values were calculated using GraphPad Prism 8.0 software. […]

MV-4-11 cells = test: Antiproliferative activity against MV-4-11 cells (CTG method, 72 h); format: cell-based; details: Homo sapiens, MV4-11, 72 hours incubation, CellTiter-Glo
Source text: • 1. Experimental Principle: MV-4-11 is a human leukemia cell line harboring MLL translocation and expressing the MLL fusion protein MLL-AF4. […] Experimental Materials: CellTiter-Glo was purchased from Promega (Cat. #G7571); IMDM medium was purchased from Gibco (Cat. #12440061); fetal bovine serum was purchased from Excell (Cat. #FND500); dimethyl sulfoxide (DMSO) was purchased from Sigma (Cat. #D2650); 384-well cell culture plates were purchased from Corning (Cat. #3756); automated cell counter was obtained from Life Technologies (Model: Countess II); microplate reader was obtained from PerkinElmer (Model: EnVision Multilabel Reader). • 3. Experimental Methods: Cells in logarithmic growth phase were resuspended in growth medium (IMDM + 10% FBS) and diluted to the target density (50,000/mL). The cell suspension was seeded into 384-well plates at 50 µL per well and incubated overnight at 37°C in a 5% CO2 incubator.
Test compounds were dissolved in DMSO to prepare 10 mM stock solutions. The stock solutions were first diluted to 2 mmol/L with DMSO, followed by 3-fold serial dilutions to generate 10 concentrations. From each concentration, 5.5 µL was diluted with 94.5 µL growth medium. The diluted solutions were then added to the 384-well plates containing seeded cells at 5 µL per well.
Cells treated with test compounds were incubated at 37°C in a 5% CO2 incubator for 72 hours. The 384-well plates were equilibrated at room temperature, and 15 µL of CellTiter-Glo reagent was added to each well. The plates were mixed on a vortex mixer for 2 minutes and incubated at room temperature for 60 minutes. Luminescence values were read using the EnVision Multilabel Reader, and IC50 values were calculated using GraphPad Prism 5.0 software.

[1] = test system: MV-4-11 subcutaneous tumor xenograft; test: In vivo efficacy in subcutaneous MV-4-11 tumor xenograft model; design: species or system female NOD/SCID mice; details: oral gavage once daily, tumor volume, Figure 1
Source text: • 1. Objective: To evaluate the in vivo efficacy of test compounds in a subcutaneous MV-4-11 tumor xenograft model in female NOD/SCID mice. • 2. Experimental Materials: The test compound was Compound 3 prepared according to the examples of the present invention; the positive control compound SNDX-5613 was purchased from Chengdu Zhihui Zhongxin Biomedical Co., Ltd.; MV-4-11 cells were purchased from Nanjing Cobioer; NOD/SCID mice were purchased from Beijing Vital River Laboratory Animal Technology Co., Ltd. • 3. Experimental Methods: Female NOD/SCID mice, 6-8 weeks of age, weighing 16-22 g, were used. MV-4-11 cells were cultured in IMDM medium supplemented with 20% fetal bovine serum. Cells in exponential growth phase were harvested, resuspended in phosphate-buffered saline, and prepared as a cell suspension at a density of 1 × 10^7 cells/0.1 mL. Cells were subcutaneously inoculated into the right dorsal neck region of each mouse (1 × 10^7 cells/mouse) with 50% Matrigel. When the mean tumor volume reached approximately 50-100 mm^3, mice were randomized and treatment was initiated by oral gavage administration once daily. Tumor diameters were measured twice weekly using digital calipers. Tumor volume was calculated using the formula: V = 0.5 × a × b^2, where a and b represent the longest and shortest tumor diameters, respectively.

SMILES: CCN(C(=O)c1cc(F)ccc1N1CCN([C@@H]2CCN([C@H](CCCN(C)CCOC)C(C)C)C2)c2ncncc21)C(C)C [Example 3]
- IC50 (Molm-13 cells): 26.7 nM
- IC50 (MV-4-11 cells): 22.9 nM
- efficacy in MV-4-11 subcutaneous tumor xenograft model [1]: superior efficacy compared to the positive control SNDX-5613

— patent EP4775580A1, “COMPOUND, PHARMACEUTICAL COMPOSITION COMPRISING SAME, AND USE THEREOF” (Euregen Biopharma Co., Ltd., priority 2023, dated 2025)
